This is an account of results in US20230265059A1, “SOLID STATE FORMS OF 6-CARBOXY-2-(3, 5-DICHLOROPHENYL)-BENZOXAZOLE OF FORMULA-I AND PHARMACEUTICALLY ACCEPTABLE SALTS THEREOF” (NURAY CHEMICALS PRIVATE LIMITED, priority 2020, published 2023).

The nature of this data set: Drying of the hydrate form to remove water. The following applies: hydrate form having moisture content about 6.64%; drying at 55° C. temperature for 24 hours. Type of data set: physicochemical. The text has this:
The hydrate form of 6-carboxy-2-(3,5-dichlorophenyl)-benzoxazole meglumine of Formula-IA according to the present disclosure having moisture content in the range of about 3.5% to about 9% preferably about 5 to 7%. The hydrate form of 6-carboxy-2-(3,5-dichlorophenyl)-benzoxazole meglumine salt of Formula-IA having moisture up to 15 to 20% but the only 5 to 7% water is present in crystal lattice and the excess water molecule is present in surface of the Tafamidis meglumine crystal. […] The hydrate form of 6-carboxy-2-(3,5-dichlorophenyl)-benzoxazole meglumine salt of Formula-IA having moisture content about 6.64% and moisture content about 15% are resulting the same PXRD diffractogram. This confirms the water molecules up to moisture content about 6% is present in crystal lattice and the excess water is present in surface of the crystal. In an another embodiment, the present disclosure, the hydrate form of 6-carboxy-2-(3,5-dichlorophenyl)-benzoxazole meglumine having DSC as depicted in FIG. 1 and having TGA as depicted in FIG. 2.

`O=C(O)c1ccc2nc(-c3cc(Cl)cc(Cl)c3)oc2c1` [6-carboxy-2-(3,5-dichlorophenyl)-benzoxazole meglumine]: the “water content after drying” value is “not considerably reduced”.
